# Where two headings read alike, the source gives them in different places.
# Key:
# [1] = ascending single-dose pharmacokinetic study in healthy subjects; type: in vivo, human; details: for AUC: t = 0 to ∞; for CL/F: read-out: mean oral-dose clearance (C1/F) (converted)
# Experimental: A study was conducted as an ascending single-dose tolerance study with fasting administration of 500, 1000, 2000, and 4000 mg oral doses. In each cohort, 8 subjects received either placebo (2 subjects) or the prescribed dose of 2-(8,9-dioxo-2,6-diazabicyclo[5.2.0]non-1(7)-en-2-yl)ethyl]phosphonic acid (6 subjects). Subjects in the fasting 1000-mg cohort were crossed over to receive a 1000-mg postprandial dose in study period 2. Additionally, the 2000-mg dose level was repeated in a cohort of elderly subjects.
# [2] = ascending multiple-dose pharmacokinetic study in healthy subjects; type: in vivo; details: human, plasma, po, mean ± SD; for half-life: read-out: T½ (converted)
# Experimental: A study was conducted as an ascending multiple-dose tolerance study of 2-(8,9-dioxo-2,6-diazabicyclo[5.2.0]non-1(7)-en-2-yl)ethyl]phosphonic acid with administration of 200, 400, 800, and 1600 mg oral doses in healthy subjects over a 14-day period.
# [3] = pH range of 4 to 8
# [4] = ascending single-dose pharmacokinetic study in healthy subjects; type: in vivo; details: human, plasma, intravenous, 100 mg, 100 mg 1-hour, infusion, mean ± SD
# Caco-2 cell = Caco-2 cell permeability
# [5] = apparent n-octanol/water partition coefficient
# [6] = animal absorption study, oral bioavailability in rats; details: rat, in vivo, 100 mg/kg
# [7] = animal absorption study, oral bioavailability in monkeys; details: monkey, in vivo, 100 mg/kg
# [8] = 1000 mg, after standardized high-fat, high-calorie meal versus fasting
# [9] = human, plasma, po, 500 mg, 500 mg Oral, fasting, single administration, healthy subjects, mean ± SD
# [10] = human, plasma, po, 1000 mg, 1000 mg Oral, fasting, single administration, healthy subjects, mean ± SD
# [11] = human, plasma, po, 1000 mg, 1000 mg Oral, fed (high-fat, high-calorie meal), single administration, healthy subjects, mean ± SD
# [12] = human, plasma, po, 2000 mg, 2000 mg Oral, fasting (elderly), single administration, mean ± SD
# [13] = human, plasma, po, 2000 mg, 2000 mg Oral, fasting, single administration, healthy adult subjects, mean ± SD
# [14] = human, plasma, po, 4000 mg, 4000 mg Oral, fasting, single administration, healthy subjects, mean ± SD
# [15] = 200 mg, Multiple dose administration (day 14), 200 mg q 12 h Oral, fed
# [16] = 200 mg, Single dose administration, 200 mg Oral, fasting
# [17] = 400 mg, Multiple dose administration (day 14), 400 mg q 12 h Oral, fasting
# [18] = 400 mg, Single dose administration, 400 mg Oral, fasting
# [19] = 800 mg, Multiple dose administration (day 14), 800 mg q 12 h Oral, fasting
# [20] = 800 mg, Single dose administration, 800 mg Oral, fasting
# [21] = 1600 mg, Multiple dose administration (day 14), 1600 mg q 12 h Oral, fasting
# [22] = 1600 mg, Single dose administration, 1600 mg Oral, fasting
smiles,measurement,setting,value
"O=c1c2c(c1=O)N(CCP(=O)(O)O)CCCN2 [[2-(8,9-dioxo-2,6-diazabicyclo[5.2.0]non-1(7)-en-2-yl)ethyl]phosphonic acid]",lowering of mean Cmax by food,[1]; [8],67%
same,reduction of mean AUC by food,[1]; [8],57%
same,"mean oral-dose clearance (C1/F), lower in elderly than in healthy adult subjects","[1]; 2000 mg, fasting, single-dose",approximately 10%
same,Tmax,"[1]; human, plasma, intravenous, 100 mg, 100 mg 1-hour, infusion, healthy subjects, mean ± SD",0.95 ± 0.11 h
same,half-life,"[1]; human, plasma, intravenous, 100 mg, 100 mg 1-hour, infusion, healthy subjects, mean ± SD, read-out: T½ (converted)",8.3 ± 8.8 h
same,Cmax,[1]; [9],320 ± 63 ng/mL
same,Tmax,[1]; [9],1.9 ± 0.7 h
same,half-life,"[1]; human, plasma, po, 500 mg, 500 mg Oral, fasting, single administration, healthy subjects, mean ± SD, read-out: T½ (converted)",6.7 ± 6.4 h
same,AUC,[1]; [9],2140 ± 542 ng·h/mL
same,Cmax,[1]; [10],1180 ng/mL
same,Tmax,[1]; [10],0.88 h
same,half-life,"[1]; human, plasma, po, 1000 mg, 1000 mg Oral, fasting, single administration, healthy subjects, mean ± SD, read-out: T½ (converted)",14.6 ± 9.3 h
same,AUC,[1]; [10],5130 ng·h/mL
same,Cmax,[1]; [11],392 ng/mL
same,Tmax,[1]; [11],2.92 h
same,half-life,"[1]; human, plasma, po, 1000 mg, 1000 mg Oral, fed (high-fat, high-calorie meal), single administration, healthy subjects, mean ± SD, read-out: T½ (converted)",16 ± 10 h
same,AUC,[1]; [11],2210 ng·h/mL
same,Cmax,[1]; [12],1610 ± 628 ng/mL
same,Tmax,[1]; [12],1.25 ± 0.61 h
same,half-life,"[1]; human, plasma, po, 2000 mg, 2000 mg Oral, fasting (elderly), single administration, mean ± SD, read-out: T½ (converted)",14.1 ± 11.1 h
same,AUC,[1]; [12],8890 ng·h/mL
same,Cmax,[1]; [13],1790 ± 1360 ng/mL
same,Tmax,[1]; [13],1.42 ± 0.96 h
same,half-life,"[1]; human, plasma, po, 2000 mg, 2000 mg Oral, fasting, single administration, healthy adult subjects, mean ± SD, read-out: T½ (converted)",6.4 ± 2 h
same,AUC,[1]; [13],7640 ng·h/mL
same,CL/F,"[1]; human, plasma, po, 2000 mg, elderly subjects, 2000 mg, fasting, single-dose",52.3 mL/min/kg
same,CL/F,"[1]; human, plasma, po, 2000 mg, healthy adult subjects, 2000 mg, fasting, single-dose",58.3 mL/min/kg
same,Cmax,[1]; [14],1490 ± 436 ng/mL
same,Tmax,[1]; [14],2.6 ± 1.08 h
same,half-life,"[1]; human, plasma, po, 4000 mg, 4000 mg Oral, fasting, single administration, healthy subjects, mean ± SD, read-out: T½ (converted)",9.1 ± 4.6 h
same,AUC,[1]; [14],8980 ± 1980 ng·h/mL
same,half-life,"[1]; human, plasma, po, all cohorts, oral, fasting, estimates not always reliable, read-out: mean t1/2",6 to 16 h
same,bioavailability,"[1]; human, plasma, subjects in the first cohort (500 mg oral, 100 mg infusion), read-out: mean absolute bioavailability",4.3%
same,Cmax,[2]; [15],153 ± 75 ng/mL
same,Tmax,[2]; [15],1.2 ± 0.3 h
same,half-life,[2]; [15],6.6 ± 3.9 h
same,AUC,"[2]; 200 mg, Multiple dose administration (day 14), 200 mg q 12 h Oral, fed, t = 0 to 12 hours (tau)",817 ± 265 ng·h/mL
same,Cmax,[2]; [16],172 ± 90 ng/mL
same,Tmax,[2]; [16],1.3 ± 0.5 h
same,half-life,[2]; [16],3.5 ± 0.6 h
same,AUC,"[2]; 200 mg, Single dose administration, 200 mg Oral, fasting, t = 0 to ∞",699 ± 201 ng·h/mL
same,Cmax,[2]; [17],398 ± 209 ng/mL
same,Tmax,[2]; [17],1.6 ± 1.3 h
same,half-life,[2]; [17],11.9 ± 10.4 h
same,AUC,"[2]; 400 mg, Multiple dose administration (day 14), 400 mg q 12 h Oral, fasting, t = 0 to 12 hours (tau)",1810 ± 747 ng·h/mL
same,Cmax,[2]; [18],346 ± 282 ng/mL
same,Tmax,[2]; [18],2 ± 1.6 h
same,half-life,[2]; [18],4.5 ± 1.2 h
same,AUC,"[2]; 400 mg, Single dose administration, 400 mg Oral, fasting, t = 0 to ∞",1490 ± 371 ng·h/mL
same,Cmax,[2]; [19],436 ± 151 ng/mL
same,Tmax,[2]; [19],1.4 ± 0.6 h
same,half-life,[2]; [19],16.9 ± 8.8 h
same,AUC,"[2]; 800 mg, Multiple dose administration (day 14), 800 mg q 12 h Oral, fasting, t = 0 to 12 hours (tau)",2180 ± 644 ng·h/mL
same,Cmax,[2]; [20],715 ± 524 ng/mL
same,Tmax,[2]; [20],1.4 ± 0.7 h
same,half-life,[2]; [20],8.3 ± 1.3 h
same,AUC,"[2]; 800 mg, Single dose administration, 800 mg Oral, fasting, t = 0 to ∞",3190 ± 800 ng·h/mL
same,Cmax,[2]; [21],1510 ± 842 ng/mL
same,Tmax,[2]; [21],1.4 ± 1.3 h
same,half-life,[2]; [21],10.5 ± 6.6 h
same,AUC,"[2]; 1600 mg, Multiple dose administration (day 14), 1600 mg q 12 h Oral, fasting, t = 0 to 12 hours (tau)",4910 ± 1210 ng·h/mL
same,Cmax,[2]; [22],962 ± 592 ng/mL
same,Tmax,[2]; [22],1.3 ± 1.3 h
same,half-life,[2]; [22],6.9 ± 1.7 h
same,AUC,"[2]; 1600 mg, Single dose administration, 1600 mg Oral, fasting, t = 0 to ∞",4060 ± 1320 ng·h/mL
same,solubility,[3],very soluble
same,Cmax,[4],4010 ± 512 ng/mL
same,AUC,[4]; t = 0 to ∞,10200 ± 1720 ng·h/mL
same,Caco-2 cell permeability,Caco-2 cell,poor
same,logP,[5],-1.37
same,bioavailability,[6],~1%
same,bioavailability,[7],~2.5%

# — patent US20050142192A1, “Oral administration of [2-(8,9-dioxo-2,6-diazabicyclo[5.2.0]non-1(7)-en-2-yl)alkyl] phosphonic acid and derivatives” (Wyeth, priority 2003, published 2005)
